This is an account of results in EP4592286A1, “MACROCYCLIC NITROGEN-CONTAINING CROWN ETHER COMPOUND AND USE THEREOF AS PROTEIN KINASE INHIBITOR” (Artivila Biopharma, priority 2022, dated 2024).

What all share (type): biochemical
One assay has as its target LRRK2 (Homo sapiens, UniProt Q5S007). The experiment in a line: experiment of inhibiting kinase activity, LRRK2. The following applies: for inhibition at 0.01 µM: at 10 nM; for inhibition at 0.01 µM / inhibition at 0.1 µM: read-out: inhibition rate LRRK2; for inhibition at 0.1 µM: at 100 nM; for IC50: kinase activity assay, Table 3. The method, then: (§1) The inhibition rates of tested compounds on JAK1, JAK2, JAK3, TYK2, CDK7, CDK9, EGFR (T790M) and LRRK2 kinases were measured. The test concentrations of the compounds were 10 nM and 100 nM, and the detection was performed by replicate wells. Alternatively, compounds were 3-fold serial diluted from 10 µM for 10 concentrations in replicate wells.

The next assay deals with T1, JAK3 (Homo sapiens, UniProt P52333).
T1 sequence (P52333 1-1124): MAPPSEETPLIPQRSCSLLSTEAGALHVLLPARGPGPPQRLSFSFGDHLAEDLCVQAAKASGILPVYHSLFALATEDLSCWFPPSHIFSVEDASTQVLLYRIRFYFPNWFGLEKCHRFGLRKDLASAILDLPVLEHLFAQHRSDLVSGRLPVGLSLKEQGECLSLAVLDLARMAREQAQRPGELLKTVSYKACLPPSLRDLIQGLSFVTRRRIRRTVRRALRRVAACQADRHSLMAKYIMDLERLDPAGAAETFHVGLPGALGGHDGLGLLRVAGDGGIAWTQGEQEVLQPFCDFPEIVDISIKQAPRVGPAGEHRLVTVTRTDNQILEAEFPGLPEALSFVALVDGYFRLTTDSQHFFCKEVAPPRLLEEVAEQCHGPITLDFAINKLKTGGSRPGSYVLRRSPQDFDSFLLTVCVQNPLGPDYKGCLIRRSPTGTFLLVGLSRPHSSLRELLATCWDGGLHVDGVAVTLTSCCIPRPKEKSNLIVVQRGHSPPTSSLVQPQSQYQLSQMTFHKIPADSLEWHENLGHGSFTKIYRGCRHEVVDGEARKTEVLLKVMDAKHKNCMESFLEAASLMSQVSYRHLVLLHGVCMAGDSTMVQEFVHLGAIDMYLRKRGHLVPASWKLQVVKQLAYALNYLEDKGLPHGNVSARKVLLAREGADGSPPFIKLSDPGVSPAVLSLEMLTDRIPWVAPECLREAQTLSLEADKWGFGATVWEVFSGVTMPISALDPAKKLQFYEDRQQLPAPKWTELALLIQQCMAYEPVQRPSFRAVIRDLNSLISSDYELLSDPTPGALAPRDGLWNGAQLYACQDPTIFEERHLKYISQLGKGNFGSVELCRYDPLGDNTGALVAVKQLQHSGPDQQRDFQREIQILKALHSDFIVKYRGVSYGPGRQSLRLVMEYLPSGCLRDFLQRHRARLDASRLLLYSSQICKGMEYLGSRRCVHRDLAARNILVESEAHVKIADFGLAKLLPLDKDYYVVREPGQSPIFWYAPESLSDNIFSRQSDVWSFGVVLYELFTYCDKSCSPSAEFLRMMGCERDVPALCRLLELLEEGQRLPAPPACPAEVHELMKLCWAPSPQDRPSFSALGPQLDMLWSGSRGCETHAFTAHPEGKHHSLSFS
The experiment in a line: experiment of inhibiting kinase activity (Caliper mobility shift assay), JAK3. The following applies: for inhibition at 0.01 µM: at 10 nM; for inhibition at 0.01 µM / inhibition at 0.1 µM: read-out: inhibition rate JAK3; for inhibition at 0.1 µM: at 100 nM. The protocol:
as §1
(§2) The inhibitory effects of the compounds on JAK1, JAK2, JAK3, CDK7 and CDK9 kinases were detected by the method of Caliper mobility shift assay. 250 nL of the compound at 100-fold final concentration was transferred to a destination plate 384-well-plate by using a liquid handler Echo 550. A kinase solution at 2.5-fold final concentration was prepared with 1×kinase buffer. 10 µL of the kinase solution with 2.5-fold final concentration was added to compound wells and positive control wells; and 10 µL of 1×kinase buffer was added to negative control wells. The mixture was centrifuged at 1000 rpm for 30 seconds and then incubated at room temperature for 10 minutes. A mixed solution of ATP and kinase substrate at 5/3-fold final concentration was prepared with 1×kinase buffer, and 15 µL of the mixed solution of ATP and substrate at 5/3-fold final concentration was added to start the reaction. The 384-well plate was centrifuged at 1000 rpm for 30 seconds, shaked and mixed evenly, then incubated at room temperature for a corresponding time. 30 µL of stop solution was added to stop the kinase reaction, the mixture was centrifuged at 1000 rpm for 30 seconds, and shaked and mixed evenly. The conversion rate was read by Caliper EZ Reader. The conversion inhibition rate%=(average positive control conversion rate%-sample conversion rate%)/(average positive control conversion rate%-average negative control conversion rate%). Where negative control wells represent the conversion readings of the background well of kinase buffer; and positive control wells represent the conversion readings of wells without compound inhibition. With the log value of concentration as the x axis and the percentage inhibition rate as the y axis, the dose-response curve was fitted by the log (inhibitor) vs. response-variable slope of the analyzing softwar GraphPad Prism 5, and the IC50 values of each compound on enzyme activity were obtained. Calculation formula is as follows: y=Bottom+(Top-Bottom)/(1+10^((LogIC50-x)×hillslope)), where x is logarithm of inhibitor concentration; and Y is % inhibition rate.

The target of a further assay is TYK2 (Homo sapiens, UniProt P29597). The experiment in a line: experiment of inhibiting kinase activity, TYK2. The following applies: read-out: inhibition rate TYK2; for inhibition at 0.01 µM: at 10 nM; for inhibition at 0.1 µM: at 100 nM. The protocol:
as §1

In a further assay the target is JAK1 (Homo sapiens, UniProt P23458). The experiment in a line: experiment of inhibiting kinase activity (Caliper mobility shift assay), JAK1. The following applies: for inhibition at 0.01 µM: at 10 nM; for inhibition at 0.01 µM / inhibition at 0.1 µM: read-out: inhibition rate JAK1; for inhibition at 0.1 µM: at 100 nM. The protocol: as §1, §2
JAK1, sequence (P23458 whole entry): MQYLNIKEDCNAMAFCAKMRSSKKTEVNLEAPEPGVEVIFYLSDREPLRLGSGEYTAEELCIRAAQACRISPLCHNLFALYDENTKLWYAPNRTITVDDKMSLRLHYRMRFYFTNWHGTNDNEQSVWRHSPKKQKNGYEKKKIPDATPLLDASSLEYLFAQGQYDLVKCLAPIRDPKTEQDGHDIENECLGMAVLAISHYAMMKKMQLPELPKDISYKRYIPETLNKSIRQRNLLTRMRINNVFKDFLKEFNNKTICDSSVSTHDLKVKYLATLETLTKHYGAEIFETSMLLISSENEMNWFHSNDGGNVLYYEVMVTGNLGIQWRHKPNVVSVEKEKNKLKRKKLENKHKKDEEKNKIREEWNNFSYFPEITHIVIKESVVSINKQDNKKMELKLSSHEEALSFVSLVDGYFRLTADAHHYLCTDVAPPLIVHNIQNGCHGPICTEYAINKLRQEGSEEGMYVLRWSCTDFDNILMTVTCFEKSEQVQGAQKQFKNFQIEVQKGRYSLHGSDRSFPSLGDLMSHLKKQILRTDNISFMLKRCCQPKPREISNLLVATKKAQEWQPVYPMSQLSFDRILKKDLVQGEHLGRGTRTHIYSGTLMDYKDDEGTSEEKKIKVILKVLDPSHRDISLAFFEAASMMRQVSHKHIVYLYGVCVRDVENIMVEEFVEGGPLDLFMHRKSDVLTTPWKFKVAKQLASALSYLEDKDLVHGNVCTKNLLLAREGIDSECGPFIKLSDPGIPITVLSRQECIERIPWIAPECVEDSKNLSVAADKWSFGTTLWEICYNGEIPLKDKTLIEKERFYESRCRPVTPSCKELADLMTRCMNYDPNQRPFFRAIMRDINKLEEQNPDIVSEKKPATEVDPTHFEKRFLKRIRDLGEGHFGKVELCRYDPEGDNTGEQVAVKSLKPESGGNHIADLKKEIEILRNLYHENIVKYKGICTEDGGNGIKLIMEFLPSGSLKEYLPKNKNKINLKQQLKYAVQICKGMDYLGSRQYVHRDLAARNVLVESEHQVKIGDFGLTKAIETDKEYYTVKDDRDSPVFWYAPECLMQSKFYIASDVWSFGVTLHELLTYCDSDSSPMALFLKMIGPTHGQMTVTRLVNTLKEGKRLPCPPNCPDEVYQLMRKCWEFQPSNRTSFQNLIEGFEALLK
For the next assay, the target named is JAK2 (Homo sapiens, UniProt O60674). The assay is described as follows: experiment of inhibiting kinase activity (Caliper mobility shift assay), JAK2. Particulars: for inhibition at 0.01 µM: at 10 nM; for inhibition at 0.01 µM / inhibition at 0.1 µM: read-out: inhibition rate JAK2; for inhibition at 0.1 µM: at 100 nM; for IC50: kinase activity assay, Table 3. The protocol: as §1, §2

By inhibition is commonly meant the change of the read-out against control, counted positive when it falls. One may read the IC50 as the concentration at which inhibition is half-maximal.

TYK2, sequence (P29597 whole entry): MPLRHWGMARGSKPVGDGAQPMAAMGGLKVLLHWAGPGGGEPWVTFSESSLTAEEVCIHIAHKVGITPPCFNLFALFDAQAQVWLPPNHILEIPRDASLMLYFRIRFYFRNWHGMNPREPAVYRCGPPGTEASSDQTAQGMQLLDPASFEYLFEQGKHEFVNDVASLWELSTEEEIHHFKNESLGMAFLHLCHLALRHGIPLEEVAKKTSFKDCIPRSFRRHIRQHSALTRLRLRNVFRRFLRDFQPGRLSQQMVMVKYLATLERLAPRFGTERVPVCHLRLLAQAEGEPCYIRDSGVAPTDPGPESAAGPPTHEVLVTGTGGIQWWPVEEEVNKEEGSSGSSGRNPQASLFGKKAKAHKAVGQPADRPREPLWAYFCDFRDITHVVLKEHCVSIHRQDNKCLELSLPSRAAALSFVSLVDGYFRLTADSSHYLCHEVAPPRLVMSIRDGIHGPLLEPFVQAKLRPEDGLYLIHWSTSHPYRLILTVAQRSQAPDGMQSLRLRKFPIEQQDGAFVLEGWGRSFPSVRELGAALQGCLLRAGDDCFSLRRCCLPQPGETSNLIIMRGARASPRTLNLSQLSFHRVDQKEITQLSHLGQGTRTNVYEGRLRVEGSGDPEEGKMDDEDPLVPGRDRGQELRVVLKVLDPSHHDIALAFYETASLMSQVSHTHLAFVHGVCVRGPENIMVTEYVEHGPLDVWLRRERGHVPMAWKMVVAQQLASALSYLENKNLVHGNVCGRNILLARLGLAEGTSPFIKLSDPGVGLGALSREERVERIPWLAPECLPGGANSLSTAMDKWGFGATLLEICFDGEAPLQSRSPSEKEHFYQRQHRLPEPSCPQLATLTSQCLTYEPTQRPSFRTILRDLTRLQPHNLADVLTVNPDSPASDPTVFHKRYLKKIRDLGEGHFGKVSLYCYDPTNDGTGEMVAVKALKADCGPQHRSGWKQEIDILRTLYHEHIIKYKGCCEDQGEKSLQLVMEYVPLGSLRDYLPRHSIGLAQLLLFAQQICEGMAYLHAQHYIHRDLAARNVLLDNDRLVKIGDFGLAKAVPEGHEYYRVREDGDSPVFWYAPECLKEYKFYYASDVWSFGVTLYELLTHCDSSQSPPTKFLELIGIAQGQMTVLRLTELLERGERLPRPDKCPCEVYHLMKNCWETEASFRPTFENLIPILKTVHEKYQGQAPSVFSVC
LRRK2, sequence (Q5S007 whole entry): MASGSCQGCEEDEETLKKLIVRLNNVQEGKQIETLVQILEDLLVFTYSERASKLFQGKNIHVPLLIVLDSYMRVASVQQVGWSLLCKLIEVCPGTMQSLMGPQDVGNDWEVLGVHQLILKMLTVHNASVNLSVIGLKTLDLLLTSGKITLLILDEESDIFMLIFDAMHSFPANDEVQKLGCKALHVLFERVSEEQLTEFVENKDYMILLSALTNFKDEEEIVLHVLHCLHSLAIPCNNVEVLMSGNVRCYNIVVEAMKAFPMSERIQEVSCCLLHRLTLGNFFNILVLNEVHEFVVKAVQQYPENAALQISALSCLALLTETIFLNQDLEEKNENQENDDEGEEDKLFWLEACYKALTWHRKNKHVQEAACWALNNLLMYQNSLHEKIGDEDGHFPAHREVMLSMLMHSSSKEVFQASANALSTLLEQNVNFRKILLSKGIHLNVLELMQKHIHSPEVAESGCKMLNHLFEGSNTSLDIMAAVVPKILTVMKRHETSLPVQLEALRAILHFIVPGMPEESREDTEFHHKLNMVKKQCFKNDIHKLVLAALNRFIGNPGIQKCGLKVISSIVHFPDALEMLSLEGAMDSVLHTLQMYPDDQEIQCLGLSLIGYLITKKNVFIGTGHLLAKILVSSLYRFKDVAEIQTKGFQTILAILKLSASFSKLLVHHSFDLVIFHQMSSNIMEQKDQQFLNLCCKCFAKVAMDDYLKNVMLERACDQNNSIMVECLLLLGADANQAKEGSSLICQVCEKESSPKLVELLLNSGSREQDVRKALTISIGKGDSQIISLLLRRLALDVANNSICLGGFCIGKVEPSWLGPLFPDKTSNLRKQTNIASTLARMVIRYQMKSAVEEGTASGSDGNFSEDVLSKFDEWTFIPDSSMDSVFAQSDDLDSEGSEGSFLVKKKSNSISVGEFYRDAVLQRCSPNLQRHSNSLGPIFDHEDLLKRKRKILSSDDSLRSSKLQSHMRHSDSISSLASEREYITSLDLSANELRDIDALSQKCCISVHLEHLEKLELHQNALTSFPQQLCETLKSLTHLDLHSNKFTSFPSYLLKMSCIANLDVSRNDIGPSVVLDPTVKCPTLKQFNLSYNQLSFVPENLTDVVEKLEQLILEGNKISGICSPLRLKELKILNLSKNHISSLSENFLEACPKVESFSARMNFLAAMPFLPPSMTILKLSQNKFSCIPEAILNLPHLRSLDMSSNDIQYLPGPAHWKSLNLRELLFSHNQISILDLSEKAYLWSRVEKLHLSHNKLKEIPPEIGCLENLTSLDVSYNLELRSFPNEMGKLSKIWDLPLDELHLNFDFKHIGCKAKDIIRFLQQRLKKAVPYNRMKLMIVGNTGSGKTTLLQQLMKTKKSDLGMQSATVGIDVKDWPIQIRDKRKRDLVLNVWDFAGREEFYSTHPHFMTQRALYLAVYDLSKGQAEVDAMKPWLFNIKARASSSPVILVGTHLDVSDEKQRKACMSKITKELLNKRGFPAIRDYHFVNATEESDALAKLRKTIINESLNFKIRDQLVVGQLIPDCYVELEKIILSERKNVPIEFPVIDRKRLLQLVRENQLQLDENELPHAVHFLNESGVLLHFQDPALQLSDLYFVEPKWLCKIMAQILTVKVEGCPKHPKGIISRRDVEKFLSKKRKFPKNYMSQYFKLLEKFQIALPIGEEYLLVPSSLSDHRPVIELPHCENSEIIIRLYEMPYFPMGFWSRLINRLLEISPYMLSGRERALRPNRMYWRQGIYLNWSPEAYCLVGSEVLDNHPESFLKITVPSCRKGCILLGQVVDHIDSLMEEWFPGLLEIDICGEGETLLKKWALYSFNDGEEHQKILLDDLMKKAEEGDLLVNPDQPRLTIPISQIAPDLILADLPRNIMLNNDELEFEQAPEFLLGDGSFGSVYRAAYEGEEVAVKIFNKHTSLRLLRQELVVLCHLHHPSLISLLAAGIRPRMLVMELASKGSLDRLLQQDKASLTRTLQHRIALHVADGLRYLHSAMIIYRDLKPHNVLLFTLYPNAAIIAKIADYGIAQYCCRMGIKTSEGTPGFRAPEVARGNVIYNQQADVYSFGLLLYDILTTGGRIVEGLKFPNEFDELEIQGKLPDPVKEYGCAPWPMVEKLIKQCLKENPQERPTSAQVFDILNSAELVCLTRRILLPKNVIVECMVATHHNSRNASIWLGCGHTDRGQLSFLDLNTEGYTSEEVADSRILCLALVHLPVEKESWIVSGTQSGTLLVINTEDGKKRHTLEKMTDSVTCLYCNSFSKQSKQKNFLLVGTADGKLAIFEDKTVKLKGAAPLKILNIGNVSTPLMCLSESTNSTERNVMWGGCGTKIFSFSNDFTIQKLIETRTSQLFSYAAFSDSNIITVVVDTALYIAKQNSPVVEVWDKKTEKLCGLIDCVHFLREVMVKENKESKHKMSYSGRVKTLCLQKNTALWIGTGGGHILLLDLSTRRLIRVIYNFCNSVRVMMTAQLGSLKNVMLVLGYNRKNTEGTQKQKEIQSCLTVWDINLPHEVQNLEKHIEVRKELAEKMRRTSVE

Regarding `CN1CCOCCOc2ccc(Nc3nc(-c4cnn(C(CC#N)C5CCCC5)c4)c4cc[nH]c4n3)cc2OCC1` (stereo not shown) [Example 48, 3-cyclopentyl-3-(4-(2-((7-methyl-2,3,6,7,8,9-hexahydro-5H-benzo[b][1,4,7]trioxa [10]azacyclododecan-12-yl)amino)-7H-pyrrolo[2,3-d]pyrimidin-4-yl)-1H-pyrazol-1-yl) propionitrile], the inhibition at 0.01 µM on LRRK2, at JAK3, on TYK2, on JAK1 and on JAK2 was over 80% in each case.

`CN1CCOCCOc2cc(Nc3ncc(F)c(Nc4cccc(S(=O)(=O)NC(C)(C)C)c4)n3)ccc2OCC1` [Example 9, N-(tert-butyl)-3-((5-fluoro-2-((7-methyl-2,3,6,7,8,9-hexahydro-5H-benzo[b][1,4,7]trioxa[10]azacyclododecan-13-yl)amino)pyrimidin-4-yl)amino)benzenesulfonamide]: the inhibition at 0.1 µM on LRRK2 is 40 to 79%; at JAK3, 40 to 79%; at TYK2, 40 to 79%; on JAK1, 25 to 39%; on JAK2 it was over 80%. For the same compound, at JAK2, the inhibition at 0.01 µM is over 80%. For the same compound, on JAK2, the concentration for half-maximal inhibition (IC50) is under 50 nM.

In the case of `CN1CCOCCOc2ccc(Nc3nc(-c4ccc(C(=O)NCC#N)cc4)c4cc[nH]c4n3)cc2OCC1` [Example 51, N-(cyanomethyl)-4-(2-((7-methyl-2,3,6,7,8,9-hexahydro-5H-benzo[b][1,4,7]trioxa [10]azacyclododecan-12-yl)amino)-7H-pyrrolo[2,3-d]pyrimidin-4-yl)benzamide], the inhibition at 0.01 µM on LRRK2 is 25 to 39%; on JAK3, 40 to 79%; at TYK2 it was 25 to 39%; on JAK1 it was 40 to 79%; at JAK2 it was over 80%.

As for `CN1CCOCCOc2cc(Nc3nc(-c4ccc(C(=O)NCC#N)cc4)c4cc[nH]c4n3)ccc2OCC1` [Example 17, N-(cyanomethyl)-4-(2-((7-methyl-2,3,6,7,8,9-hexahydro-5H-benzo[b][1,4,7]trioxa [10]azacyclododecan-13-yl)amino)-7H-pyrrolo[2,3-d]pyrimidin-4-yl)benzamide], the inhibition at 0.01 µM was 40 to 79% on LRRK2; 40 to 79% on JAK3; 40 to 79% on TYK2; 40 to 79% at JAK1; over 80% on JAK2.

With `CCS(=O)(=O)N1CC(CC#N)(n2cc(-c3nc(Nc4ccc5c(c4)OCCN(C)CCOCCO5)nc4[nH]ccc34)cn2)C1` [Example 49, 2-(1-(ethylsulfonyl)-3-(4-(2-((7-methyl-2,3,6,7,8,9-hexahydro-5H-benzo[b][1,4,7]trioxa[10]azacyclododecan-12-yl)amino)-7H-pyrrolo[2,3-d]pyrimidin-4-yl)-1H-pyrazol-1-yl)azetidin-3-yl)acetonitrile], the inhibition at 0.01 µM at LRRK2 was 40 to 79%; on JAK3, over 80%; on TYK2 it was over 80%; at JAK1 it was over 80%; at JAK2, over 80%.

For the compound `CN1CCOc2ccc(Nc3nc(-c4ccc(C(=O)NCC#N)cc4)c4cn[nH]c4n3)cc2OCC1` [Example 38, N-(cyanomethyl)-4-(6-((4-methyl-3,4,5,6-tetrahydro-2H-benzo[b][1,4,7]dioxazolin-9-yl)amino)-1H-pyrazolo[3,4-d]pyrimidin-4-yl)benzamide], the inhibition at 0.1 µM at LRRK2 was 40 to 79%; at JAK3, 25 to 39%; at TYK2, 40 to 79%; on JAK1, 40 to 79%; at JAK2, over 80%. The results for the concentration for half-maximal inhibition (IC50) at LRRK2 and at JAK2 were 50 to 200 nM and under 50 nM, respectively.

As for `CN1CCOCCOc2ccc(Nc3ncc(F)c(Nc4cccc(S(=O)(=O)NC(C)(C)C)c4)n3)cc2OCC1` [Example 40, N-(tert-butyl)-3-((5-fluoro-2-((7-methyl-2,3,6,7,8,9-hexahydro-5H-benzo[b][1,4,7]trioxa[10]azacyclododecan-12-yl)amino)pyrimidin-4-yl)amino)benzenesulfonamide], the inhibition at 0.1 µM is 25 to 39% on LRRK2; 25 to 39% at JAK3; 40 to 79% on TYK2; 25 to 39% at JAK1; over 80% at JAK2. In addition, on JAK2, the inhibition at 0.01 µM was over 80%.

As for `CCS(=O)(=O)N1CC(CC#N)(n2cc(-c3nc(Nc4ccc5c(c4)OCCN(C)CCO5)nc4[nH]ncc34)cn2)C1` [Example 29, 2-(1-(ethylsulfonyl)-3-(4-(6-((4-methyl-3,4,5,6-tetrahydro-2H-benzo[b][1,4,7]dioxazolin-9-yl)amino)-1H-pyrazolo[3,4-d]pyrimidin-4-yl)-1H-pyrazol-1-yl)azetidin-3-yl) acetonitrile], the inhibition at 0.1 µM at LRRK2 was 40 to 79%; on TYK2, over 80%; at JAK1, over 80%; on JAK2 it was over 80%. Moreover, the IC50 at LRRK2 was 50 to 200 nM; at JAK3 (kinase activity assay, Table 3), under 50 nM; at JAK1 (kinase activity assay, Table 3), under 50 nM; at JAK2, under 50 nM.

For the compound `CN1CCOc2ccc(Nc3nc(-c4cnn([C@@H](CC#N)C5CCCC5)c4)c4cc[nH]c4n3)cc2OCC1` [Example 77, (S)-3-cyclopentyl-3-(4-(2-((4-methyl-3,4,5,6-tetrahydro-2H-benzo[b][1,4,7]dioxazolin-9-yl)amino)-7H-pyrrolo[2,3-d]pyrimidin-4-yl)-1H-pyrazol-1-yl)propanenitrile], the inhibition at 0.01 µM on LRRK2, at JAK3, at TYK2, at JAK1 and at JAK2 was over 80% each time.

As to `CN1CCOCCOc2cc(Nc3nc(-c4cnn([C@H](CC#N)C5CCCC5)c4)c4cc[nH]c4n3)ccc2OCC1` [Example 74, (R)-3-cyclopentyl-3-(4-(2-((7-methyl-2,3,6,7,8,9-hexahydro-5H-benzo[b][1,4,7]trioxa[10]azacyclododecan-13-yl)amino)-7H-pyrrolo[2,3-d]pyrimidin-4-yl)-1H-pyrazol-1-yl) propionitrile], the inhibition at 0.01 µM on LRRK2 was 40 to 79%; on JAK3, over 80%; at TYK2, over 80%; at JAK1 it was 25 to 39%; on JAK2, over 80%.
